Reference: ChEMBL document CHEMBL3885881, “DrugMatrix”

Species on record: Rattus norvegicus
Experiment: DrugMatrix - Regimen: Daily Repeat
Format: toxicity, organism-based, Sprague-Dawley
Parameters: regimen Daily Repeat, gender Male, age 6-8 weeks
Conditions: in vivo, iv, vehicle 100 % SALINE; for ABSOLUTE BASOPHIL / ABSOLUTE EOSINOPHIL / ABSOLUTE LYMPHOCYTE / ABSOLUTE MONOCYTE / ABSOLUTE SEGMENTED NEUTROPHIL / BASOPHIL / EOSINOPHIL / ERYTHROCYTE COUNT / HEMATOCRIT / LEUKOCYTE COUNT / LYMPHOCYTE / MEAN CORPUSCULAR HEMOGLOBIN / MEAN CORPUSCULAR HEMOGLOBIN CONCENTRATION / MONOCYTE / NEUTROPHIL / NUCLEATED RED BLOOD CELLS / PLATELET COUNT / HEMOGLOBIN: tissue Blood
[1] = 6 mg/kg, 72 h, tissue Plasma, dose level Low, time 3 day
[2] = 6 mg/kg, 120 h, dose level Low, time 5 day
[3] = 6 mg/kg, 120 h, tissue Plasma, dose level Low, time 5 day
[4] = 14 mg/kg, 72 h, dose level High, time 3 day
[5] = 14 mg/kg, 72 h, tissue Plasma, dose level High, time 3 day
[6] = 14 mg/kg, 120 h, dose level High, time 5 day
[7] = 14 mg/kg, 120 h, tissue Plasma, dose level High, time 5 day

CARBOPLATIN
TOTAL PROTEIN [1]: 6.3 G/DL
URIC ACID [1]: 1.1 mg/dL
ABSOLUTE BASOPHIL [2]: 0 CELLS/uL
ABSOLUTE EOSINOPHIL [2]: 0 CELLS/uL
ABSOLUTE LYMPHOCYTE [2]: 10376.67 CELLS/uL
ABSOLUTE MONOCYTE [2]: 36 CELLS/uL
ABSOLUTE SEGMENTED NEUTROPHIL [2]: 287.33 CELLS/uL
BASOPHIL [2]: 0%
EOSINOPHIL [2]: 0%
ERYTHROCYTE COUNT [2]: 5.55 x10E6/uL
HEMATOCRIT [2]: 34.6%
LEUKOCYTE COUNT [2]: 10.7 x10E3/uL
LYMPHOCYTE [2]: 97%
MEAN CORPUSCULAR HEMOGLOBIN [2]: 24.17 pg
MEAN CORPUSCULAR HEMOGLOBIN CONCENTRATION [2]: 38.73 G/DL
MONOCYTE [2]: 0.33%
NEUTROPHIL [2]: 2.67%
NUCLEATED RED BLOOD CELLS [2]: 0.33 /100WBC
PLATELET COUNT [2]: 1189.33 x10E3/uL
ALANINE AMINOTRANSFERASE [3]: 46 u/L
ALKALINE PHOSPHATASE [3]: 366 u/L
ASPARTATE AMINOTRANSFERASE [3]: 90.67 u/L
CARBON DIOXIDE [3]: 29 mmol/L
CHOLESTEROL [3]: 74.67 mg/dL
CREATINE PHOSPHOKINASE [3]: 348 u/L
CREATININE [3]: 0.38 mg/dL
GLUCOSE [3]: 158.33 mg/dL
LACTATE DEHYDROGENASE [3]: 130.67 u/L
LIPASE [3]: 9 u/L
PHOSPHORUS [3]: 10.43 mg/dL
POTASSIUM [3]: 5.45 MEQ/L
TOTAL BILIRUBIN [3]: 0.17 mg/dL
TOTAL PROTEIN [3]: 6.07 G/DL
URIC ACID [3]: 0.87 mg/dL
ABSOLUTE BASOPHIL [4]: 0 CELLS/uL
ABSOLUTE EOSINOPHIL [4]: 14 CELLS/uL
ABSOLUTE LYMPHOCYTE [4]: 7854 CELLS/uL
ABSOLUTE MONOCYTE [4]: 121.33 CELLS/uL
ABSOLUTE SEGMENTED NEUTROPHIL [4]: 410.67 CELLS/uL
BASOPHIL [4]: 0%
EOSINOPHIL [4]: 0.33%
ERYTHROCYTE COUNT [4]: 6.2 x10E6/uL
HEMATOCRIT [4]: 38.03%
HEMOGLOBIN [4]: 15.03 G/DL
LEUKOCYTE COUNT [4]: 8.4 x10E3/uL
LYMPHOCYTE [4]: 94%
MEAN CORPUSCULAR HEMOGLOBIN [4]: 24.43 pg
MEAN CORPUSCULAR HEMOGLOBIN CONCENTRATION [4]: 39.67 G/DL
NEUTROPHIL [4]: 4%
NUCLEATED RED BLOOD CELLS [4]: 1 /100WBC
PLATELET COUNT [4]: 574 x10E3/uL
ALANINE AMINOTRANSFERASE [5]: 46.67 u/L
ALBUMIN [5]: 4.5 G/DL
ALKALINE PHOSPHATASE [5]: 398.67 u/L
ASPARTATE AMINOTRANSFERASE [5]: 94.33 u/L
BLOOD UREA NITROGEN [5]: 15.67 mg/dL
CARBON DIOXIDE [5]: 29.33 mmol/L
CHLORIDE [5]: 97 MEQ/L
CHOLESTEROL [5]: 78.33 mg/dL
CREATINE PHOSPHOKINASE [5]: 381 u/L
CREATININE [5]: 0.22 mg/dL
GLUCOSE [5]: 145.33 mg/dL
LACTATE DEHYDROGENASE [5]: 168.33 u/L
LIPASE [5]: 11 u/L
POTASSIUM [5]: 6.3 MEQ/L
TOTAL BILIRUBIN [5]: 0.23 mg/dL
TOTAL PROTEIN [5]: 6.6 G/DL
URIC ACID [5]: 1.1 mg/dL
ABSOLUTE BASOPHIL [6]: 0 CELLS/uL
ABSOLUTE EOSINOPHIL [6]: 0 CELLS/uL
ABSOLUTE LYMPHOCYTE [6]: 7567 CELLS/uL
ABSOLUTE MONOCYTE [6]: 38.67 CELLS/uL
ABSOLUTE SEGMENTED NEUTROPHIL [6]: 427.67 CELLS/uL
BASOPHIL [6]: 0%
EOSINOPHIL [6]: 0%
ERYTHROCYTE COUNT [6]: 5.69 x10E6/uL
HEMATOCRIT [6]: 34.77%
HEMOGLOBIN [6]: 13.5 G/DL
LEUKOCYTE COUNT [6]: 8.03 x10E3/uL
LYMPHOCYTE [6]: 94.33%
MEAN CORPUSCULAR HEMOGLOBIN CONCENTRATION [6]: 38.83 G/DL
MONOCYTE [6]: 0.33%
NEUTROPHIL [6]: 5.33%
NUCLEATED RED BLOOD CELLS [6]: 0.33 /100WBC
PLATELET COUNT [6]: 1070.33 x10E3/uL
ALANINE AMINOTRANSFERASE [7]: 54 u/L
ALKALINE PHOSPHATASE [7]: 340 u/L
ASPARTATE AMINOTRANSFERASE [7]: 84.33 u/L
BLOOD UREA NITROGEN [7]: 18 mg/dL
CARBON DIOXIDE [7]: 28 mmol/L
CHOLESTEROL [7]: 71.67 mg/dL
CREATINE PHOSPHOKINASE [7]: 378.67 u/L
CREATININE [7]: 0.28 mg/dL
GLUCOSE [7]: 151.67 mg/dL
LACTATE DEHYDROGENASE [7]: 133 u/L
LIPASE [7]: 11.67 u/L
PHOSPHORUS [7]: 10.93 mg/dL
POTASSIUM [7]: 4.99 MEQ/L
TOTAL BILIRUBIN [7]: 0.17 mg/dL
TOTAL PROTEIN [7]: 6.07 G/DL
URIC ACID [7]: 0.83 mg/dL
